Source: patent US9221746B2, “Homo- and hetero-polyamino-acid derivatives of fullerene C60, method for producing same, and pharmaceutical compositions based on said derivatives” (priority 2011, dated 2015)
Read-outs that look alike come from different tables or passages of the source. Marks after values point to notes of the source that are not given here.

Experiments:
Lewis carcinoma (3LL) = experiment: Transplantable Lewis carcinoma (3LL) in mice; type: in vivo
Procedure: (§1) These studies were carried out at the Institute for Toxicology, St. Petersburg, 2006, according to “Guidelines for the Study of Antitumor Activity of Pharmacological Agents” (“Manual on Experimental (Preclinical) Study of New Pharmacological Agents,” Ministry of Public Health of the Russian Federation, Remedium, Moscow, 2000, pp. 319-325).
(§2) The L1210 leukemia, breast adenocarcinoma Ca-755, and Lewis carcinoma (3LL) tumor cell strain were purchased from the Petrov Research Institute for Oncology, the Ministry of Public Health of the Russian Federation (St. Petersburg).
C 57 BL/6J line male mice with transplanted 3LL cells. Mouse ages: 6 to 8 weeks; body weights: 18 to 24 g.
(§3) The antitumor effect was ascertained through the following parameters: • ascite accumulation as animal body weight gain; • the lifetime of animals; and • tumor growth. The larger dimension of the tumor (length) and the smaller dimension normal thereto (width) were measured. The tumor volume was calculated, and the inhibition of tumor growth was calculated by a formula. The ascertainment criterion was the day when each individual tumor reached a volume of 500 mm^3.

L1210 leukemia = type: in vivo, mice; details: for ILT, %: increase in lifetime compared to the control; for Average body weight gain, M ± m / Percent inhibition relative to control / Average weight gain, M ± m: ascite development
Procedure: as §1, §2
DBA/2 line mice with transplanted L1210 leukemia cells. Mouse ages: 6 to 8 weeks; body weights: 19 to 25 g.
as §3
During the experiment, the animals were weighed daily with the goal of evaluating ascite accumulation and studying the agents compared on this process.

“Fullerene Poly(Aminocaproic Acid) of Formula C60(H3){NH(CH2)5COO—}3{NH3^+(CH2)5COOH}3 [Agent No. 1]” was tested, and the “Day when the tumor reaches a volume of 500 mm³” value (“Day … of 500 mm³” below) (Lewis carcinoma (3LL); 100 mg/kg) was 21.3 ± 1.21 days, the “Lifetime, M ± m” value (Lewis carcinoma (3LL); 100 mg/kg) was 55.92 ± 0.98 days and the “day post transplantation when the first tumors were observed” value (Lewis carcinoma (3LL); 100 mg/kg) was 7 days. For the same substance, the “Number of large (>3 mm) metastases in lungs, M ± m” value (Lewis carcinoma (3LL); 100 mg/kg (n = 12)) was 5.8 ± 1.91, the “Number of metastases in lungs, M ± m” value (Lewis carcinoma (3LL); 100 mg/kg (n = 12)) was 53.5 ± 11.23 and the “Weight of lungs, mg M + m” value (Lewis carcinoma (3LL); 100 mg/kg (n = 12)) was 491.9 ± 63.72 mg. The “percent inhibition (average tumor volume) compared to the control group” value (“percent inhibition … to the control group” for short) (Lewis carcinoma (3LL); 100 mg/kg, day 10) was 71.77%, the “percent inhibition … to the control group” value (Lewis carcinoma (3LL); 100 mg/kg, day 17) was 58.5% and the “Day … of 500 mm³” value (Lewis carcinoma (3LL); 100 mg/kg, versus control) was 27.3%*. The “Lifetime, Percent increase” value (Lewis carcinoma (3LL); 100 mg/kg, versus control) was 70.42%*, the “Day … of 500 mm³” value (Lewis carcinoma (3LL); 250 mg/kg) was 20.5 ± 1.20 days and the “Lifetime, M ± m” value (Lewis carcinoma (3LL); 250 mg/kg) was 56.38 ± 0.68 days. The “day post transplantation when the first tumors appeared” value (Lewis carcinoma (3LL); 250 mg/kg) was 8 days, the “Number of large (>3 mm) metastases in lungs, M ± m” value (Lewis carcinoma (3LL); 250 mg/kg (n = 13)) was 5.7 ± 1.54 and the “Number of metastases in lungs, M ± m” value (Lewis carcinoma (3LL); 250 mg/kg (n = 13)) was 55.8 ± 11.60. For the same substance, the “Weight of lungs, mg M + m” value (Lewis carcinoma (3LL); 250 mg/kg (n = 13)) was 505.4 ± 68.82 mg, the “percent inhibition … to the control group” value (Lewis carcinoma (3LL); 250 mg/kg, day 10) was 84.37% and the “percent inhibition … to the control group” value (Lewis carcinoma (3LL); 250 mg/kg, day 17) was 54.2%. The “Day … of 500 mm³” value (Lewis carcinoma (3LL); 250 mg/kg, versus control) was 22.9%*, the “Lifetime, Percent increase” value (Lewis carcinoma (3LL); 250 mg/kg, versus control) was 71.85%* and the “increase of the average lifetime against the control group” value (Lewis carcinoma (3LL); both doses) was “approximately 70%”. For the same substance, the “ALT in days, M ± m” value (L1210 leukemia; 100 mg/kg) was 10.7 ± 37 days, the “ILT, %” value (L1210 leukemia; 100 mg/kg) was 78.33% and the “ALT in days, M ± m” value (L1210 leukemia; 100 mg/kg, listed as agent) was 10.7 ± 0.37 days. The average lifetime (L1210 leukemia; 200 mg/kg) was 10.60 ± 0.37 days, the “percent increase in lifetime compared to the control” value (L1210 leukemia; 200 mg/kg) was 76.67% and the “ALT in days, M ± m” value (L1210 leukemia; 250 mg/kg) was 10.60 ± 37 days. The “factor by which average body weight gain is lower at 250 mg/kg than at 100 mg/kg” value (L1210 leukemia; 250 mg/kg versus 100 mg/kg) was 1.5, the “ILT, %” value (L1210 leukemia; 250 mg/kg) was 76.67% and the “Average body weight gain, M ± m” value (L1210 leukemia; 100 mg/kg, day 1) was 0.3 ± 0.2. The “Average body weight gain, M ± m” value (L1210 leukemia; 100 mg/kg, day 2) was 0.8 ± 0.4, the “Average body weight gain, M ± m” value (L1210 leukemia; 100 mg/kg, day 3) was 2.5 ± 0.5 and the “Percent inhibition relative to control” value (L1210 leukemia; 100 mg/kg, day 3) was 50.0%*. For the same substance, the “Average body weight gain, M ± m” value (L1210 leukemia; 100 mg/kg, day 4) was 4.2 ± 1.0, the “Percent inhibition relative to control” value (L1210 leukemia; 100 mg/kg, day 4) was 63.2%* and the “Average body weight gain, M ± m” value (L1210 leukemia; 100 mg/kg, day 5) was 8.4 ± 1.2. For the same substance, the “Percent inhibition relative to control” value (L1210 leukemia; 100 mg/kg, day 5) was 48.5%*, the “Average body weight gain, M ± m” value (L1210 leukemia; 100 mg/kg, day 6) was 12.1 ± 2.1 and the “Percent inhibition relative to control” value (L1210 leukemia; 100 mg/kg, day 6) was 42.9%*. For the same substance, the “Average body weight gain, M ± m” value (L1210 leukemia; 100 mg/kg, day 7) was 14.2 ± 2.2, the “Percent inhibition relative to control” value (L1210 leukemia; 100 mg/kg, day 7) was 46.0%* and the “Average weight gain, M ± m” value (L1210 leukemia; 250 mg/kg, day 1) was 0.3 ± 0.1. For the same substance, the “Average weight gain, M ± m” value (L1210 leukemia; 250 mg/kg, day 2) was 0.5 ± 0.3, the “Average weight gain, M ± m” value (L1210 leukemia; 250 mg/kg, day 3) was 1.1 ± 0.4 and the “Percent inhibition relative to control” value (L1210 leukemia; 250 mg/kg, day 3) was 78.0%*. For the same substance, the “Average weight gain, M ± m” value (L1210 leukemia; 250 mg/kg, day 4) was 2.8 ± 0.9, the “Percent inhibition relative to control” value (L1210 leukemia; 250 mg/kg, day 4) was 75.4%* and the “Average weight gain, M ± m” value (L1210 leukemia; 250 mg/kg, day 5) was 4.7 ± 1.2. The “Percent inhibition relative to control” value (L1210 leukemia; 250 mg/kg, day 5) was 71.2%*, the “Average weight gain, M ± m” value (L1210 leukemia; 250 mg/kg, day 6) was 8.4 ± 1.6 and the “Percent inhibition relative to control” value (L1210 leukemia; 250 mg/kg, day 6) was 60.4%*. The “Average weight gain, M ± m” value (L1210 leukemia; 250 mg/kg, day 7) was 10.0 ± 1.3, the “Percent inhibition relative to control” value (L1210 leukemia; 250 mg/kg, day 7) was 62.0%* and the intoxication signatures (L1210 leukemia; mouse, in vivo) was “No intoxication signatures were detected”.
